System: not listed separately
Experiment: Effective dose required for lipid lowering property in marmosets by oral administration for 7 days
Format: functional
Settings: 168 h
C=C(CC[C@]12O[C@H](C(=O)O)[C@@](O)(C(=O)O)[C@](C(=O)O)(O1)[C@H](OC(=O)/C=C/[C@@H](C)C[C@@H](C)CC)[C@H]2O)[C@@H](OC(C)=O)[C@H](C)Cc1ccccc1 [ZARAGOZIC ACIDS A] gave an ED50 of 10 mg/kg/day.

System: not listed separately
Experiment: Percent decrease in serum cholesterol levels after intravenous administration of 1 mg/Kg dose for 7 days
Format: functional
Settings: not given
Work on C=C(CC[C@]12O[C@H](C(=O)O)[C@@](O)(C(=O)O)[C@](C(=O)O)(O1)[C@H](OC(=O)/C=C/[C@@H](C)C[C@@H](C)CC)[C@H]2O)[C@@H](OC(C)=O)[C@H](C)Cc1ccccc1 [ZARAGOZIC ACIDS A] yielded a Decrease of 60%.

Molecular target: T1, Squalene synthase (Rattus norvegicus, UniProt Q02769)
T1 sequence (Q02769 whole entry): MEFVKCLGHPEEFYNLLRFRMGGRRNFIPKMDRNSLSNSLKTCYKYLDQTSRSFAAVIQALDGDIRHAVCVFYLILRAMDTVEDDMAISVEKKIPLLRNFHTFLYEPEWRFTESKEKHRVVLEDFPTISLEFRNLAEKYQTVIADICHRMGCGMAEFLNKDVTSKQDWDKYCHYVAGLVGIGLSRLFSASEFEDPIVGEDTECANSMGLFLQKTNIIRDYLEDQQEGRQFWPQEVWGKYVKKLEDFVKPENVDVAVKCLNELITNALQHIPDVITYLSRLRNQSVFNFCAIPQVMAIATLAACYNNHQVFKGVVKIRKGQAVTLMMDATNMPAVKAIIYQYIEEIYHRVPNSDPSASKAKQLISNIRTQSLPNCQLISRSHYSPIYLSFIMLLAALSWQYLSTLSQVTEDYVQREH
Experiment: Inhibitory concentration against mammalian Squalene synthase
Settings: not given
Work on C=C(CC[C@]12O[C@H](C(=O)O)[C@@](O)(C(=O)O)[C@](C(=O)O)(O1)[C@H](OC(=O)/C=C/[C@@H](C)C[C@@H](C)CC)[C@H]2O)[C@@H](O)[C@H](C)Cc1ccccc1 yielded an IC50 of 5 nM.
In the case of CC(=O)NC/C(=C\[C@H](C)Cc1ccccc1)CC[C@]12O[C@H](C(=O)O)[C@@](O)(C(=O)O)[C@](C(=O)O)(O1)[C@H](O)[C@H]2O, the IC50 is reported as greater than 10000 nM.
In the case of C=C(CC[C@]12O[C@H](C(=O)O)[C@@](O)(C(=O)O)[C@](C(=O)O)(O1)[C@H](O)[C@H]2O)[C@@H](OC)[C@H](C)Cc1ccccc1, the IC50 is reported as 500 nM.
C=C(CC[C@]12O[C@H](C(=O)O)[C@@](O)(C(=O)O)[C@](C(=O)O)(O1)[C@H](O)[C@H]2O)[C@@H](OCC)[C@H](C)Cc1ccccc1 gave an IC50 of 40 nM.
Compound C=C(CC[C@]12O[C@H](C(=O)O)[C@@](O)(C(=O)O)[C@](C(=O)O)(O1)[C@H](O)[C@H]2O)[C@@H](NC(C)=O)[C@H](C)Cc1ccccc1 has an IC50 of 2220 nM.
For C=C(CC[C@]12O[C@H](C(=O)O)[C@@](O)(C(=O)O)[C@](C(=O)O)(O1)[C@H](O)[C@H]2O)[C@@H](OC(=O)C(C)(C)C)[C@H](C)Cc1ccccc1, the IC50 was 2290 nM.
For C=C(CC[C@]12O[C@H](C(=O)O)[C@@](O)(C(=O)O)[C@](C(=O)O)(O1)[C@H](O)[C@H]2O)[C@H](NC(C)=O)[C@H](C)Cc1ccccc1, the IC50 was greater than 10000 nM.
C=C(CC[C@]12O[C@H](C(=O)O)[C@@](O)(C(=O)O)[C@](C(=O)O)(O1)[C@H](O)[C@H]2O)[C@@H](O)[C@H](C)Cc1ccccc1 gave an IC50 of 252 nM.
For CC(=O)NC/C(=C\[C@@H](C)Cc1ccccc1)CC[C@]12O[C@H](C(=O)O)[C@@](O)(C(=O)O)[C@](C(=O)O)(O1)[C@H](O)[C@H]2O, the IC50 was greater than 10000 nM.
Work on C=C(CC[C@]12O[C@H](C(=O)O)[C@@](O)(C(=O)O)[C@](C(=O)O)(O1)[C@H](O)[C@H]2O)[C@@H](OCCC)[C@H](C)Cc1ccccc1 yielded an IC50 of 600 nM.
Compound C=C(CC[C@]12O[C@H](C(=O)O)[C@@](O)(C(=O)O)[C@](C(=O)O)(O1)[C@H](O)[C@H]2O)[C@@H](OC(C)C)[C@H](C)Cc1ccccc1 has an IC50 of 49 nM.
Work on C=C(CC[C@]12O[C@H](C(=O)O)[C@@](O)(C(=O)O)[C@](C(=O)O)(O1)[C@H](O)[C@H]2O)[C@@H](OCC1CC1)[C@H](C)Cc1ccccc1 yielded an IC50 of 33 nM.
In the case of C=C(CC[C@]12O[C@H](C(=O)O)[C@@](O)(C(=O)O)[C@](C(=O)O)(O1)[C@H](O)[C@H]2O)[C@@H](OCc1ccccc1)[C@H](C)Cc1ccccc1, the IC50 is reported as 1420 nM.
C#CCO[C@H](C(=C)CC[C@]12O[C@H](C(=O)O)[C@@](O)(C(=O)O)[C@](C(=O)O)(O1)[C@H](O)[C@H]2O)[C@H](C)Cc1ccccc1 gave an IC50 of 1200 nM.
C=CCO[C@H](C(=C)CC[C@]12O[C@H](C(=O)O)[C@@](O)(C(=O)O)[C@](C(=O)O)(O1)[C@H](O)[C@H]2O)[C@H](C)Cc1ccccc1 showed an IC50 of 27 nM.
Work on C=C(CC[C@]12O[C@H](C(=O)O)[C@@](O)(C(=O)O)[C@](C(=O)O)(O1)[C@H](O)[C@H]2O)[C@@H](OC(=O)c1ccccc1)[C@H](C)Cc1ccccc1 yielded an IC50 of 532 nM.

System: not listed separately
Experiment: Lipid lowering ability after intravenous administration of 10 mg/Kg single dose
Format: functional
Settings: not given
With C=C(CC[C@]12O[C@H](C(=O)O)[C@@](O)(C(=O)O)[C@](C(=O)O)(O1)[C@H](O)[C@H]2O)[C@@H](OC(C)=O)[C@H](C)Cc1ccccc1 the Lowering was 30%.

Reference: ChEMBL document CHEMBL1150033, “The squalestatins: effects of changes at the allylic centre in the C1 sidechain” (Bioorg Med Chem Lett, 1994)
